How the values were obtained:
Type in all cases: in vivo
Diabrotica balteata = assay: Example B1: Diabrotica balteata (corn root worm), sprayed maize sprouts; conditions: 96 h, read-out: effect in at least one of the two categories (mortality or growth inhibition)
Procedure: Example B1: Diabrotica balteata (Corn Root Worm)
Maize sprouts placed onto an agar layer in 24-well microtiter plates were treated with aqueous test solutions prepared from 10,000 ppm DMSO stock solutions by spraying. After drying, the plates were infested with L2 larvae (6 to 10 per well). The samples were assessed for mortality and growth inhibition in comparison to untreated samples 4 days after infestation.

Tetranychus urticae = assay: Example B7: Tetranychus urticae (two-spotted spider mite), feeding/contact activity; conditions: 192 h, application rate 200 ppm, mixed population (mobile stages), 8 days after infestation
Procedure: Example B7: Tetranychus urticae (Two-Spotted Spider Mite): Feeding/Contact Activity
Bean leaf discs on agar in 24-well microtiter plates were sprayed with aqueous test solutions prepared from 10,000 ppm DMSO stock solutions. After drying the leaf discs were infested with a mite population of mixed ages. The samples were assessed for mortality on mixed population (mobile stages) 8 days after infestation.

Spodoptera littoralis [1] = assay: Example B6: Spodoptera littoralis (Egyptian cotton leaf worm), root uptake by lettuce from agar; conditions: 144 h, test rate 12.5 ppm, 6 days after infestation, read-out: effect in at least one of the three categories (mortality, anti-feeding, or growth inhibition)
Excerpt: Example B6: Spodoptera littoralis (Egyptian Cotton Leaf Worm)
Test compounds were applied by pipette from 10,000 ppm DMSO stock solutions into 24-well plates and mixed with agar. Lettuce seeds were placed onto the agar and the multi well plate was closed by another plate which contained also agar. After 7 days the compound was absorbed by the roots and the lettuce grew into the lid plate. The lettuce leaves were then cut off into the lid plate. Spodoptera eggs were pipetted through a plastic stencil onto a humid gel blotting paper and the lid plate was closed with it. The samples were assessed for mortality, anti-feedant effect and growth inhibition in comparison to untreated samples 6 days after infestation.

Myzus persicae = assay: Example B4: Myzus persicae (green peach aphid), intrinsic activity; conditions: 120 h, test rate 12 ppm, 5 days after infestation
Excerpt: Example B4: Myzus persicae (Green Peach Aphid): Intrinsic Activity
Test compounds prepared from 10,000 ppm DMSO stock solutions were applied by pipette into 24-well microtiter plates and mixed with sucrose solution. The plates were closed with a stretched Parafilm. A plastic stencil with 24 holes was placed onto the plate and infested pea seedlings were placed directly on the Parafilm. The infested plate was closed with a gel blotting paper and another plastic stencil and then turned upside down. The samples were assessed for mortality 5 days after infestation.

Spodoptera littoralis [2] = assay: Example B5: Spodoptera littoralis (Egyptian cotton leaf worm), sprayed cotton leaf discs; conditions: foliar, 72 h, application rate 200 ppm, L1 larvae, 3 days after infestation, read-out: control (mortality, anti-feeding effect, growth inhibition)
Procedure: Example B5: Spodoptera littoralis (Egyptian Cotton Leaf Worm)
Cotton leaf discs were placed onto agar in 24-well microtiter plates and sprayed with aqueous test solutions prepared from 10,000 ppm DMSO stock solutions. After drying the leaf discs were infested with five L1 larvae. The samples were assessed for mortality, anti-feeding effect, and growth inhibition in comparison to untreated samples 3 days after infestation. Control of Spodoptera littoralis by a test sample is given when at least one of the categories mortality, anti-feedant effect, and growth inhibition is higher than the untreated sample.

Plutella xylostella = assay: Example B4 (second): Plutella xylostella (diamond back moth), artificial diet; conditions: 120 h, application rate 200 ppm, L2 larvae, 5 days after infestation, read-out: effect in at least one of the two categories (mortality or growth inhibition)
Procedure: Example B4: Plutella xylostella (Diamond Back Moth)
24-well microtiter plates with artificial diet were treated with aqueous test solutions prepared from 10,000 ppm DMSO stock solutions by pipetting. After drying, the plates were infested with L2 larvae (10 to 15 per well). The samples were assessed for mortality and growth inhibition in comparison to untreated samples 5 days after infestation.

Euschistus heros = assay: Example B2: Euschistus heros (neotropical brown stink bug), sprayed soybean leaves; conditions: 120 h, application rate 200 ppm, N2 nymphs, 5 days after infestation, read-out: effect in at least one of the two categories (mortality or growth inhibition)
Procedure: Example B2: Euschistus heros (Neotropical Brown Stink Bug)
Soybean leaves on agar in 24-well microtiter plates were sprayed with aqueous test solutions prepared from 10,000 ppm DMSO stock solutions. After drying the leaves were infested with N2 nymphs. The samples were assessed for mortality and growth inhibition in comparison to untreated samples 5 days after infestation.

Anopheles stephensi = assay: Example B11: insecticide impregnated polymer surfaces (LDPE sheets), Anopheles stephensi; conditions: 2% active ingredient in LDPE sheets, after 48 h and/or 24 h
Excerpt: (§1) Example B11: Evaluation of Insecticide Impregnated Polymer Surfaces
(§2) Preparation of polymeric sheets: Compound P1.17 was impregnated into LDPE (low density polyethylene) by mixing the respective polymer with the compound at high temperatures and the resultant polymeric material was then mould into thin discs or plaques.
(§3) Twenty four hours prior to the relevant assessment intervals, three to five day old non-blood fed adult mosquitoes were taken from the culture and lightly anaesthetised with carbon dioxide. Ten females were selected and placed in a 250 ml plastic cup, retained with a net lid, provided with a 10% sucrose solution soaked in a cotton wool bung and held under culturing environmental conditions.
(§4) After twenty four hours, impregnated polymer sheets (measuring about 150 mm in diameter and about 0.1 mm in thickness) were removed from storage and wrapped around the glazed side of an 11 cm ceramic tile and held in place with an elastic band. The age of the polymer sheets used were either 1-2 weeks or 10 weeks old. A cup of the pre-selected mosquitoes were again lightly anaesthetised with carbon dioxide and transferred from the holding cup to the base of a 9 cm plastic Petri dish. The relevant impregnated polymer sheet was placed over the Petri dish and held in place with an elastic band. Once the mosquitoes had recovered from the anaesthetic, ca. 1 minute, the impregnated polymer sheet was placed on a holding rack, such that treated side was at an angle of 60° to the horizontal.
(§5) After one hour an assessment of mosquito knockdown was made. A mosquito was said to be knocked down if it was unable to right itself once it had fallen over. The mosquitoes were lightly anaesthetised again, and removed from the Petri dish exposure chamber and returned to the holding cups. The mosquitoes were supplied with a 10% sucrose solution soaked in a cotton wool bung and held under culturing environmental conditions. An assessment of mortality was made 24 hours and 48 hours after exposure. A mosquito was said to be dead if it is unable to right itself once it had fallen over.

Aedes aegypti = assay: Example B11: insecticide impregnated polymer surfaces (LDPE sheets), Aedes aegypti; conditions: 2% active ingredient in LDPE sheets, after 48 h and/or 24 h
Excerpt: as §1, §2, §3, §4, §5

Question: Which percent control (mortality or growth inhibition) at 200 ppm (Diabrotica balteata) does the source give for `CCC1(c2ccccc2)N=C(NC(C)(C)C)N(C)O1` (stereo not shown) [Compound P1.94, N-tert-Butyl-5-ethyl-2-methyl-5-phenyl-1,2,4-oxadiazol-3-amine] here?
Answer: ≥ 80%

Question: What about the mortality at 200 ppm (Tetranychus urticae) of the same compound?
Answer: ≥ 80%

Question: Which percent control (mortality or growth inhibition) at 200 ppm (Diabrotica balteata) does the source give for `CN1OC(c2ccccc2)(C2CC2)N=C1N(C)C(C)(C)C` (stereo not shown) [Compound P1.18, N-tert-Butyl-5-cyclopropyl-N,2-dimethyl-5-phenyl-1,2,4-oxadiazol-3-amine] here?
Answer: ≥ 80%

Question: With `CN1OC(c2ccc(-c3ccc(F)cc3)cc2)(C2CC2)N=C1NC(C)(C)C` (stereo not shown) [Compound P1.137, N-tert-butyl-5-cyclopropyl-5-[4-(4-fluorophenyl)phenyl]-2-methyl-1,2,4-oxadiazol-3-amine] as the compound, how does the percent control (mortality or growth inhibition) at 200 ppm (Diabrotica balteata) read?
Answer: ≥ 80%

Question: Which percent effect (mortality, anti-feeding or growth inhibition) at 12.5 ppm (Spodoptera littoralis [1]) does the source give for `CN1OC(c2ccc(F)cc2)(C2CC2)N=C1NC(C)(C)C(F)(F)F` (stereo not shown) [Compound P1.88, 5-Cyclopropyl-5-(4-fluorophenyl)-2-methyl-N-(2,2,2-trifluoro-1,1-dimethyl-ethyl)-1,2,4-oxadiazol-3-amine] here?
Answer: ≥ 80%

Question: What about the mortality at 12 ppm (Myzus persicae) of the same compound?
Answer: ≥ 80%

Question: What about the mortality at 200 ppm (Spodoptera littoralis [2]) of the same compound?
Answer: ≥ 80%

Question: What about the percent control (mortality or growth inhibition) at 200 ppm (Diabrotica balteata) of the same compound?
Answer: ≥ 80%

Question: And the percent effect (mortality or growth inhibition) at 200 ppm (Plutella xylostella)?
Answer: ≥ 80%

Question: And the mortality at 200 ppm (Tetranychus urticae)?
Answer: ≥ 80%

Question: What about the percent effect (mortality or growth inhibition) at 200 ppm (Euschistus heros) of the same compound?
Answer: ≥ 80%

Question: `CN1OC(c2ccccc2)(C2CC2)N=C1NC(C)(C)C` (stereo not shown) [Compound P1.17, N-tert-Butyl-5-cyclopropyl-2-methyl-5-phenyl-1,2,4-oxadiazol-3-amine] was tested. Which mortality at 12 ppm (Myzus persicae) did it give?
Answer: ≥ 80%

Question: And the “control of Anopheles stephensi” value (Anopheles stephensi; sheet after 1 week)?
Answer: at least 80%

Question: What about the “control of Anopheles stephensi” value (Anopheles stephensi; sheet after 2 weeks) of the same compound?
Answer: at least 80%

Question: What about the “control of Anopheles stephensi” value (Anopheles stephensi; sheet after 10 weeks) of the same compound?
Answer: at least 80%

Question: And the mortality at 200 ppm (Spodoptera littoralis [2])?
Answer: ≥ 80%

Question: What about the “control of Aedes Aegypti” value (Aedes aegypti; sheet after 1 week) of the same compound?
Answer: at least 80%

Question: What about the “control of Aedes Aegypti” value (Aedes aegypti; sheet after 2 weeks) of the same compound?
Answer: at least 80%

Question: What about the “control of Aedes Aegypti” value (Aedes aegypti; sheet after 10 weeks) of the same compound?
Answer: at least 80%

Question: And the percent control (mortality or growth inhibition) at 200 ppm (Diabrotica balteata)?
Answer: ≥ 80%

Question: And the percent effect (mortality or growth inhibition) at 200 ppm (Plutella xylostella)?
Answer: ≥ 80%

Question: For `CN1OC(c2ccc(C#N)cc2)(C2CC2)N=C1NC(C)(C)C` (stereo not shown) [Compound P1.136, 4-[3-(tert-butylamino)-5-cyclopropyl-2-methyl-1,2,4-oxadiazol-5-yl]benzonitrile], which percent control (mortality or growth inhibition) at 200 ppm (Diabrotica balteata) is on record?
Answer: ≥ 80%
